The values that follow come from ChEMBL document CHEMBL1806411, “Opioid δ₁ receptor antagonist 7-benzylidenenaltrexone as an effective resistance reverser for chloroquine-resistant Plasmodium chabaudi” (Bioorg Med Chem Lett, 2011).

Assay type in all cases: functional, organism-based
Experiment [1] has as its system Plasmodium chabaudi. The experiment can be described thus: Reversal of chloroquine-resistance in Plasmodium chabaudi infected in mouse at 10 mg/kg, po coadministered with chloroquine 3 mg/kg, iv administered for 3 consecutive days measured on day 4.
Experiment [2] has as its system Plasmodium chabaudi. The experiment can be described thus: Antimalarial activity against chloroquine-resistant Plasmodium chabaudi infected in mouse assessed as parasitemia at 10 mg/kg, po administered for 3 consecutive days. Set-up: dose 10 mg/kg.
Experiment [3] has as its system Plasmodium chabaudi. Nature of the experiment: Reversal of chloroquine-resistance in Plasmodium chabaudi infected in mouse at 20 mg/kg, po coadministered with chloroquine 3 mg/kg, iv administered for 3 consecutive days measured on day 4.

Calls of active or inactive are those of the source. The rule behind the calls is not given here.

As for `CCN(CC)CCCC(C)Nc1ccnc2cc(Cl)ccc12` (stereo not drawn), the result in the experiment with Plasmodium chabaudi [1] and in the experiment with Plasmodium chabaudi [2] was inactive.

For `Oc1ccc2c3c1O[C@H]1c4oc5ccccc5c4C[C@@]4(O)[C@@H](C2)N(CC2CC2)CC[C@]314`, the result in the experiment with Plasmodium chabaudi [1] and in the experiment with Plasmodium chabaudi [2] was Active.

Take `COc1ccc(CCN(C)CCCC(C#N)(c2ccc(OC)c(OC)c2)C(C)C)cc1OC` (stereo not drawn): the outcome with Plasmodium chabaudi [3] was Active.

In the case of `O=C1/C(=C/c2ccccc2)C[C@@]2(O)[C@H]3Cc4ccc(O)c5c4[C@@]2(CCN3CC2CC2)[C@H]1O5`, in the experiment with Plasmodium chabaudi [1], the result was Active. Further, the outcome in the experiment on Plasmodium chabaudi [2] was inactive.

Consider `Oc1ccc2c3c1O[C@H]1c4[nH]c5c(c4C[C@@]4(O)[C@@H](C2)N(CC2CC2)CC[C@]314)C[C@@]1(O)[C@H]2Cc3ccc(O)c4c3[C@@]1(CCN2CC1CC1)[C@H]5O4`, for which, in the experiment on Plasmodium chabaudi [1], the result was Active. Moreover, in the experiment with Plasmodium chabaudi [2], the outcome was inactive.

On to `Oc1ccc2c3c1O[C@H]1c4[nH]c5ccccc5c4C[C@@]4(O)[C@@H](C2)N(CC2CC2)CC[C@]314`, for which the outcome in the experiment on Plasmodium chabaudi [1] was Active. Besides, in the experiment on Plasmodium chabaudi [2], the result was inactive.

As for `O=C1CC[C@@]2(O)[C@H]3Cc4ccc(O)c5c4[C@@]2(CCN3CC2CC2)[C@H]1O5`, the outcome with Plasmodium chabaudi [1] was Active. Further, the outcome in the experiment with Plasmodium chabaudi [2] was inactive.
